From PubChem BioAssay (NCI)
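These data come from cells grown in 96-well plates and exposed to compound for 48 hours at five concentrations. The concentration for full growth arrest is given as TGI.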

Columns and labels:
Assay in all cases: NCI tumour cell line growth inhibition, 48 h
IGROV1 ovarian = system: IGROV1 ovarian
SK-OV-3 ovarian = system: SK-OV-3 ovarian
RPMI-8226 leukemia = system: RPMI-8226 leukemia
A549 NSCLC = system: A549 NSCLC
HOP-62 NSCLC = system: HOP-62 NSCLC
TK-10 renal = system: TK-10 renal
OVCAR-4 ovarian = system: OVCAR-4 ovarian
OVCAR-5 ovarian = system: OVCAR-5 ovarian
UACC-257 melanoma = system: UACC-257 melanoma
HS 578T breast = system: HS 578T breast
MDA-MB-231 breast = system: MDA-MB-231 breast
RXF 393 renal = system: RXF 393 renal
NCI-H522 lung = system: NCI-H522 lung
SW-620 colon = system: SW-620 colon
MCF7 breast = system: MCF7 breast
HCT-15 colon = system: HCT-15 colon
MALME-3M melanoma = system: MALME-3M melanoma
SNB-19 CNS = system: SNB-19 CNS
SK-MEL-2 melanoma = system: SK-MEL-2 melanoma
EKVX NSCLC = system: EKVX NSCLC
U251 CNS = system: U251 CNS
UO-31 renal = system: UO-31 renal
SR leukemia = system: SR leukemia
CAKI-1 renal = system: CAKI-1 renal
LOX IMVI melanoma = system: LOX IMVI melanoma
NCI-H226 lung = system: NCI-H226 lung
MOLT-4 leukemia = system: MOLT-4 leukemia
HL-60(TB) leukemia = system: HL-60(TB) leukemia
HOP-92 NSCLC = system: HOP-92 NSCLC
MDA-N = system: MDA-N
SF-268 CNS = system: SF-268 CNS
SF-539 CNS = system: SF-539 CNS
PC-3 prostate = system: PC-3 prostate
HCT-116 colon = system: HCT-116 colon
NCI-H23 lung = system: NCI-H23 lung
SK-MEL-5 melanoma = system: SK-MEL-5 melanoma
NCI/ADR-RES ovarian = system: NCI/ADR-RES ovarian
DU-145 prostate = system: DU-145 prostate
NCI-H460 lung = system: NCI-H460 lung
OVCAR-3 ovarian = system: OVCAR-3 ovarian
SNB-75 CNS = system: SNB-75 CNS
786-0 renal = system: 786-0 renal
OVCAR-8 ovarian = system: OVCAR-8 ovarian
K-562 leukemia = system: K-562 leukemia
ACHN renal = system: ACHN renal
SF-295 CNS = system: SF-295 CNS
SN12C renal = system: SN12C renal
CCRF-CEM leukemia = system: CCRF-CEM leukemia
MDA-MB-435 = system: MDA-MB-435
SK-MEL-28 melanoma = system: SK-MEL-28 melanoma
KM12 colon = system: KM12 colon
UACC-62 melanoma = system: UACC-62 melanoma
COLO 205 colon = system: COLO 205 colon
HT29 colon = system: HT29 colon
M14 melanoma = system: M14 melanoma
BT-549 breast = system: BT-549 breast
T-47D breast = system: T-47D breast

O=C(O)CCCNc1ncc2c(n1)-c1ccccc1OC2 was tested, and the TGI (IGROV1 ovarian) was > 100 µM, the TGI (SK-OV-3 ovarian) was > 100 µM and the TGI (RPMI-8226 leukemia) was > 100 µM. The TGI (A549 NSCLC) was > 100 µM, the TGI (HOP-62 NSCLC) was > 100 µM and the TGI (TK-10 renal) was > 100 µM. The TGI (OVCAR-4 ovarian) was > 100 µM, the TGI (OVCAR-5 ovarian) was > 100 µM and the TGI (UACC-257 melanoma) was > 100 µM. For the same molecule, the TGI (HS 578T breast) was > 100 µM, the TGI (MDA-MB-231 breast) was > 100 µM and the TGI (RXF 393 renal) was > 100 µM. The TGI (NCI-H522 lung) was > 100 µM, the TGI (SW-620 colon) was > 100 µM and the TGI (MCF7 breast) was > 100 µM. For the same molecule, the TGI (HCT-15 colon) was > 100 µM, the TGI (MALME-3M melanoma) was > 100 µM and the TGI (SNB-19 CNS) was > 100 µM. The TGI (SK-MEL-2 melanoma) was > 100 µM, the TGI (EKVX NSCLC) was > 100 µM and the TGI (U251 CNS) was > 100 µM. The TGI (UO-31 renal) was > 100 µM, the TGI (SR leukemia) was > 100 µM and the TGI (CAKI-1 renal) was > 100 µM. For the same molecule, the TGI (LOX IMVI melanoma) was > 100 µM, the TGI (NCI-H226 lung) was > 100 µM and the TGI (MOLT-4 leukemia) was > 100 µM. The TGI (HL-60(TB) leukemia) was > 100 µM, the TGI (HOP-92 NSCLC) was > 100 µM and the TGI (MDA-N) was > 100 µM. The TGI (SF-268 CNS) was > 100 µM, the TGI (SF-539 CNS) was > 100 µM and the TGI (PC-3 prostate) was > 100 µM. For the same molecule, the TGI (HCT-116 colon) was > 100 µM, the TGI (NCI-H23 lung) was > 100 µM and the TGI (SK-MEL-5 melanoma) was > 100 µM. The TGI (NCI/ADR-RES ovarian) was > 100 µM, the TGI (DU-145 prostate) was > 100 µM and the TGI (NCI-H460 lung) was > 100 µM. The TGI (OVCAR-3 ovarian) was > 100 µM, the TGI (SNB-75 CNS) was > 100 µM and the TGI (786-0 renal) was > 100 µM. The TGI (OVCAR-8 ovarian) was > 100 µM, the TGI (K-562 leukemia) was > 100 µM and the TGI (ACHN renal) was > 100 µM. For the same molecule, the TGI (SF-295 CNS) was > 100 µM, the TGI (SN12C renal) was > 100 µM and the TGI (CCRF-CEM leukemia) was > 100 µM. For the same molecule, the TGI (MDA-MB-435) was > 100 µM, the TGI (SK-MEL-28 melanoma) was > 100 µM and the TGI (KM12 colon) was > 100 µM. The TGI (UACC-62 melanoma) was > 100 µM, the TGI (COLO 205 colon) was > 100 µM and the TGI (HT29 colon) was > 100 µM. For the same molecule, the TGI (M14 melanoma) was > 100 µM.
CC(C)(C)OC(=O)[C@@H]1ON2O[C@H](OC3CCCC3(c3ccccc3)c3ccccc3)C[C@H]3OC(=O)[C@@H]1[C@H]32 (stereo not given in full) was tested, and the TGI (IGROV1 ovarian) was > 100 µM, the TGI (SK-OV-3 ovarian) was > 100 µM and the TGI (A549 NSCLC) was > 100 µM. The TGI (HOP-62 NSCLC) was > 100 µM, the TGI (TK-10 renal) was > 100 µM and the TGI (OVCAR-4 ovarian) was 54.3 µM. The TGI (OVCAR-5 ovarian) was > 100 µM, the TGI (UACC-257 melanoma) was > 100 µM and the TGI (MDA-MB-231 breast) was > 100 µM. The TGI (RXF 393 renal) was 92.1 µM, the TGI (NCI-H522 lung) was > 100 µM and the TGI (SW-620 colon) was > 100 µM. The TGI (MCF7 breast) was > 100 µM, the TGI (HCT-15 colon) was > 100 µM and the TGI (SNB-19 CNS) was > 100 µM. The TGI (SK-MEL-2 melanoma) was 51.8 µM, the TGI (EKVX NSCLC) was > 100 µM and the TGI (U251 CNS) was > 100 µM. The TGI (UO-31 renal) was > 100 µM, the TGI (SR leukemia) was > 100 µM and the TGI (CAKI-1 renal) was > 100 µM. For the same molecule, the TGI (LOX IMVI melanoma) was 96.6 µM, the TGI (NCI-H226 lung) was > 100 µM and the TGI (MDA-N) was > 100 µM. For the same molecule, the TGI (SF-268 CNS) was > 100 µM, the TGI (SF-539 CNS) was > 100 µM and the TGI (PC-3 prostate) was > 100 µM. The TGI (HCT-116 colon) was > 100 µM, the TGI (BT-549 breast) was > 100 µM and the TGI (NCI-H23 lung) was > 100 µM. The TGI (SK-MEL-5 melanoma) was > 100 µM, the TGI (NCI/ADR-RES ovarian) was > 100 µM and the TGI (DU-145 prostate) was > 100 µM. The TGI (NCI-H460 lung) was > 100 µM, the TGI (OVCAR-3 ovarian) was 54.1 µM and the TGI (SNB-75 CNS) was > 100 µM. The TGI (786-0 renal) was > 100 µM, the TGI (K-562 leukemia) was > 100 µM and the TGI (ACHN renal) was > 100 µM. For the same molecule, the TGI (SF-295 CNS) was > 100 µM, the TGI (SN12C renal) was > 100 µM and the TGI (CCRF-CEM leukemia) was > 100 µM. The TGI (MDA-MB-435) was > 100 µM, the TGI (SK-MEL-28 melanoma) was > 100 µM and the TGI (KM12 colon) was > 100 µM. For the same molecule, the TGI (UACC-62 melanoma) was > 100 µM, the TGI (COLO 205 colon) was > 100 µM and the TGI (T-47D breast) was > 100 µM. The TGI (HT29 colon) was > 100 µM and the TGI (M14 melanoma) was > 100 µM.
